Measured values published in patent US7645784B2, “Benzimidazole derivatives” (AstraZeneca AB, priority 2003, dated 2010).

Target: T1, hVR1 (Homo sapiens, UniProt Q8NER1)
T1 construct: expressed in transfected cells
Assay: hVR1 FLIPR (Fluorometric Image Plate Reader) screening assay, IC50 determination
Format: cell-based
Conditions: CHO cells stably expressing hVR1
Protocol: 1. hVR1 FLIPR (Fluorometric Image Plate Reader) screening assay
Transfected CHO cells, stably expessing hVR1 (15,000 cells/well) are seeded in 50 μL media in a black clear bottom 384 plate (Greiner) and grown in a humidified incubator (37° C., 2% CO2), 24-30 hours prior to experiment.
Subsequently, the media is removed from the cell plate by inversion and 2 μM Fluo-4 is added using a multidrop (Labsystems). Following the 40 min dye incubation in the dark at 37° C. and 2% CO2, the extracellular dye present is washed away using an EMBLA (Scatron), leaving the cells in 40 μL of assay buffer (1×HBSS, 10 mM D-Glucose, 1 mM CaCl2,10 mM HEPES, 10×7.5% NaHCO3 and 2.5 mM Probenecid).
FLIPR assay—IC50 determination protocol
For IC50 determinations the fluorescence is read using FLIPR filter 1 (em […]). A cellular baseline recording is taken for 30 seconds, followed by a 20 μL addition of 10, titrated half-log concentrations of the test compound, yielding cellular concentration ranging from 3 μM to 0.1 nM. Data is collected every 2 seconds for a further 5 min prior to the addition of a VR1 agonist solution: either 50 nM solution of capsaicin or MES (2-[N-morpholino]ethanesulfonic acid) buffer (pH 5.2), by the FLIPR pipettor. The FLIPR continues to collect data for a further 4 min. Compounds having antagonistic properties against the hVR1 will inhibit the increase in intracellular calcium in response to the capsaicin addition. This consequently leading to a reduction in fluorescence signal and providing a reduced fluorescence reading, compared with no compound, buffer controls. Data is exported by the FLIPR program as a sum of fluorescence calculated under the curve upon the addition of capsaicin. Maximum inhibition, Hill slope and IC50 data for each compound are generated.

T1 sequence (Q8NER1 whole entry): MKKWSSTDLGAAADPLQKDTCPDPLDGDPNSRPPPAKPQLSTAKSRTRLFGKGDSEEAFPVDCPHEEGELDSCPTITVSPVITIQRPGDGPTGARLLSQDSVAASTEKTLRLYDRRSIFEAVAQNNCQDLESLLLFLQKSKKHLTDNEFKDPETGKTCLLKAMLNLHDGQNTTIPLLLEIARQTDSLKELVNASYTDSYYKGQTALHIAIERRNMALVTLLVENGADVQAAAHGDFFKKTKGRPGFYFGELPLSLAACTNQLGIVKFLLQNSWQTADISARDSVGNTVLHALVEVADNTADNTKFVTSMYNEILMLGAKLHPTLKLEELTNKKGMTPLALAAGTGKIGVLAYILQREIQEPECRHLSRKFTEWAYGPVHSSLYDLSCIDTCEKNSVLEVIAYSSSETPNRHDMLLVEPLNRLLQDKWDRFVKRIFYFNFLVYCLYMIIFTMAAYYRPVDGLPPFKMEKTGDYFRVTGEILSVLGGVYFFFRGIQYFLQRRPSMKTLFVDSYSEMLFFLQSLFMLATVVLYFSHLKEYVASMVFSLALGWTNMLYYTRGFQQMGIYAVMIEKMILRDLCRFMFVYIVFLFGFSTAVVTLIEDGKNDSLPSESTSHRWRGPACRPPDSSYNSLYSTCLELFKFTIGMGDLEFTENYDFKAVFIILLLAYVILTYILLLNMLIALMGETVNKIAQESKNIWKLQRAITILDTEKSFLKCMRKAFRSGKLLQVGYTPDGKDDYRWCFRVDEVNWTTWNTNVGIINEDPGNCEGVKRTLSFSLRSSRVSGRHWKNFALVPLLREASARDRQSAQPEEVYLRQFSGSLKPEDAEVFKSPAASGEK

## O=C(Cn1cnc2cccc([N+](=O)[O-])c21)Nc1cc(F)cc(F)c1 [Example 7, N-(3,5-Difluorophenyl)-2-(7-nitro-1H-benzimidazol-1-yl)acetamide]
Agonist H+/MES buffer (pH 5.2)
  IC50: 70 nM
Agonist capsaicin
  IC50: 50 nM

## COC(=O)c1cccc2ncn(CC(=O)Nc3cc(OC)cc(OC)c3)c12 [Example 67, Methyl 1-{2-[(3,5-dimethoxyphenyl)amino]-2-oxoethyl}-1H-benzimidazole-7-carboxylate]
Agonist H+/MES buffer (pH 5.2)
  IC50: 140 nM
Agonist capsaicin
  IC50: 160 nM
